# Like-named read-outs stand apart in the source and are kept apart here.
# B1: 1,3-dicarbonyl-dioxygenase: Purified A. johnsonii enzyme, about 67 kDa, subunits of about 16.6 kDa (SEQ ID NO: 2), cleaves 1,3-dicarbonyl compounds with molecular oxygen (protein)
# chain: MDYCNKKHTAEEYVKISDNNYVPFPEAFSDGGITWQLLHSSPETSSWTAIFNCPAGSSFASHIHAGPGEYFLTKGKMEVRGGEQEGGSTAYAPSYGFESSGALHGKTFFPVESQFYMTFLGPLNFIDDNGKVIASIGWAEAQGAWLATKNEAA
# Experiments:
# CCCCC(=O)CC(C)=O = assay: purified protein, by the assay type; conditions: other: apparent; photometric, oxygen-saturated buffer, substrate 10-200 μM; pH 7.5; 25.0 °C
# CC(=O)CC(=O)C(C)(C)C = assay: purified protein, by the assay type; conditions: other: apparent; photometric, oxygen-saturated buffer, substrate 10-200 μM; pH 7.5; 25.0 °C
# CC(=O)C1CCCC1=O = assay: purified protein, by the assay type; conditions: other: apparent; photometric, oxygen-saturated buffer, substrate 10-200 μM; pH 7.5; 25.0 °C
# CCCCCC(=O)CC(C)=O = assay: purified protein, by the assay type; conditions: other: apparent; photometric, oxygen-saturated buffer, substrate 10-200 μM; pH 7.5; 25.0 °C
# CC(=O)C1CCCCC1=O = assay: purified protein, by the assay type; conditions: other: apparent; photometric, oxygen-saturated buffer, substrate 10-200 μM; pH 7.5; 25.0 °C
# CC(=O)C(C)C(C)=O = assay: purified protein, by the assay type; conditions: other: apparent; photometric, oxygen-saturated buffer, substrate 10-200 μM; pH 7.5; 25.0 °C
# tRNA = conditions: cited from earlier work
# Salmonella typhimurium = conditions: cited from earlier work
# [1] = target: T1, 1,3-dicarbonyl-dioxygenase (Acinetobacter johnsonii, UniProt Q8GNT2); assay: Determination of enzyme-activity and stability versus pH and additives; assay type: physicochemical
# Procedure: Activity measurements were performed with the oxygen-electrode, with KH2PO4-buffers adjusted to various pH-values [5.0-9.0]. For stability measurements, the enzyme was diluted ten-fold and incubated at various pH-values [5.0-9.0]. The activity was measured periodically with the UV-activity-assay.
# [2] = target: T1, 1,3-dicarbonyl-dioxygenase; assay: Substrate spectrum / apparent kinetic constants of purified 1,3-dicarbonyl-dioxygenase (UV assay and oxygen electrode)
# Procedure: (§1) The reaction rates were determined by using the microcomputer regression program provided with the spectrophotometer (Winspec) based on the first ten absorbance measurements made at 5-s intervals.
# Substrates were dissolved at a concentration of 0.001-1 mM in KH2PO4-buffer, 50 mM, pH 7.5 using a 10 mM stock solution. Duplicate absorption-measurements of 20 different dilutions were performed at 25° C. The molar absorption coefficients were calculated by linear regression.
# (§2) Oxygen consumption during the enzyme reaction was measured with an oxygen-electrode-cell (Digital Oxygen System Model 10, Rank Brothers Ltd., Cambridge, England) as described previously (Beechey, R. B. and Ribbons, D. W. (1971). ‘Methods in Microbiology’.V. 6B. Edited by J. R. Norris and D. W. Ribbons. Academic press, London. ‘Oxygen electrode measurements’ (Chapter II) pp. 29-52.). The reaction mixture contained air-saturated KH2PO4-buffer, 50 mM, pH 7.5 at 25° C. (thermostat). The oxygen-electrode was calibrated by the sodium-sulfite-method. Varying concentrations of substrate (0.01-0.3 mM) were added and the resulting decrease of oxygen was determined.
# Assuming the Michaelis-Menten-equation, Vmax and Ks values were calculated by non-linear curve-fit by the program microcal-origin. KO2 was estimated by polarographic methods, adding non limiting amounts of substrate (0.5-1 mM) and graphically determining the oxygen concentration at the point of half of the maximum activity. Ks-values were similarly confirmed by polarographic methods, by stepwise addition of substrate to a final concentration of 20-150 μM.
# [3] = target: wild-type 1,3-dicarbonyl-dioxygenase (Acinetobacter johnsonii, UniProt Q8GNT2); assay: Relative activity of wild-type enzyme at non-limiting substrate concentrations; assay type: biochemical; conditions: relative activity, acetylacetone = 1.00, non-limiting substrate concentrations
# Procedure: as §1, §2
# [4] = target: T1, 1,3-dicarbonyl-dioxygenase; assay: Reaction analysis with purified enzyme by in situ 1H-NMR / HPLC; assay type: biochemical; conditions: no cofactor added
# [5] = cited from earlier work
# [6] = target: T2, recombinant 1,3-dicarbonyl-dioxygenase (expressed in E.coli) (Acinetobacter johnsonii, UniProt Q8GNT2); assay: Relative activity of recombinant protein at non-limiting substrate concentrations; assay type: biochemical; conditions: relative activity, acetylacetone = 1.00, non-limiting substrate concentrations
# T2 construct: made in house; host or cells: E. coli XL1 Blue, plasmid pMS470 (tac promoter, NdeI/HindIII)
# Procedure: Expression constructs were expressed in E.coli XL1 Blue (Stratagene, La Jolla, Calif.), which was grown to an OD of 1 at 30° C. on rotatory shakers in erlenmeyer flasks, then induced with IPTG (0.3 mM) and incubated for another 5 hours.
# as §1, §2
# [7] = target: T1, 1,3-dicarbonyl-dioxygenase; assay: Products of various substrates determined by HPLC (cleavage stoichiometry, partially purified enzyme); assay type: biochemical; conditions: substrate 4 mM, 25° C., one hour
# From the text: The products of the enzyme reaction were identified directly from the reaction mixture by in situ ^1H-NMR-spectroscopy (Pokorny, D., L. Brecker, M. Pogorevc, H. Griengl, W. Steiner, T. Kappe, and D. W. Ribbons. 1999. Proton-Nuclear Magnetic Resonance Analyses of the Substrate Specificity of a β-Ketolase from Pseudomonas putida, Acetopyruvate Hydrolase. J. Bacteriol. 181: 5051-5059.). Therefore a 200 MHz narrow bore magnet (Varian Gemini™ 2000, Varian, Inc., Palo Alto, Calif.) and a 5 mm broadband probe head were used. The NMR tube was rotated at 20 rps. For a lock a D2O vortex capillary was added to avoid ^1H/D exchange reactions. The overwhelming water-signal was suppressed with a presaturation method (Guéron, M., P. Plateau and M. Decorps. 1991. Solvent signal suppression in NMR. Prog. NMR Spectrosc. 23: 135-209. Hore, J. P. 1989. Solvent suppression. p. 64. In N. J. Oppenheimer and J. T. James (eds.), Methods Enzymol. 176. Academic Press, Inc., San Diego.). The following parameters were adjusted for a ^1H-frequency of 200 MHz: presaturation-duration of 1.0 s, ^1H-pulse-angle of 90, an acquisition-time of 2.0 s and a relaxation delay of 1.5 s. 64 Scans were accumulated and after a zero filling to 32 k datapoints the free induction decay was Fourier transformed. The water signal (4.70 ppm) was used as a reference. For standard reaction analytics HPLC-measurements were performed (Hewlett-Packard, column: Aminex-HPX-87H, UV- and RI-detector, eluent Sulfuric acid 0.005 M).
# The cleavage-stoichiometry of several non-symmetrical substrates was also investigated, in order to be able to determine the regiospecificity of the enzyme. This was done by conversion of the respective substrate with partially purified enzyme. Methylglyoxal and acetate formed were measured by HPLC. Remaining substrate was calculated.
# [8] = repeated exposure, peroral and inhalation routes
molecule,measurement,setting,value
"1,3-dicarbonyl-dioxygenase (Acinetobacter johnsonii)",Km,CCCCC(=O)CC(C)=O,5.9 ± 1.5 µM
same,Km,CC(=O)CC(=O)C(C)(C)C,14.2 ± 3.7 µM
same,Km,CC(=O)C1CCCC1=O,21.0 ± 6.1 µM
same,Km,CCCCCC(=O)CC(C)=O,7.5 ± 2.1 µM
same,Km,CC(=O)C1CCCCC1=O,18.1 ± 4.2 µM
same,Km,CC(=O)C(C)C(C)=O,23.1 ± 6.8 µM
"CC(=O)CC(=O)C(F)(F)F [1,1,1-trifluoroacetylacetone]",inhibition of binding to tRNA of aflatoxin B1,tRNA,inhibited
"O=C1CC(=O)c2ccccc21 [1,3-indandione]",inhibition of mutagenicity of aflatoxin B1,Salmonella typhimurium,inhibit
same,inhibition of mutagenicity of benzo[a]pyrene,Salmonella typhimurium,inhibit
same,inhibition of mutagenicity of methylnitrosourea,Salmonella typhimurium; concomitant exposure to inhibitor and mutagen necessary,inhibit
same,inhibition of binding to tRNA of aflatoxin B1,tRNA,inhibited
O=C(CC(=O)c1ccccc1)c1ccccc1 [dibenzoylmethane],inhibition of mutagenicity of 2-naphthohydroxamic acid,Salmonella typhimurium,inhibit
same,inhibition of mutagenicity of aflatoxin B1,Salmonella typhimurium,inhibit
same,inhibition of mutagenicity of benzo[a]pyrene,Salmonella typhimurium,inhibit
same,inhibition of mutagenicity of methylnitrosourea,Salmonella typhimurium,inhibit
same,inhibition of binding to tRNA of aflatoxin B1,tRNA,inhibited
same,inhibition of binding to tRNA of benzo[a]pyrene,tRNA,inhibited
OCCS [mercaptoethanol],effect of potential stabilizing agent on enzyme stability,[1],did not enhance stability
bovine serum albumin: potential stabilizing agent added to the enzyme,effect of potential stabilizing agent on enzyme stability,"[1]; glycerol 10%, glucose 12.5%, ascorbate 1 mM, bovine serum albumin 1-20 mg/mL, dithiothreitol 1 mM, mercaptoethanol 1 mM",did not enhance stability
O[C@H](CS)[C@H](O)CS (racemic) [dithiothreitol],effect of potential stabilizing agent on enzyme stability,[1],did not enhance stability
"CC(=O)CC(C)=O [Acetylacetone, pentane-2,4-dione]",pH up to which the substrate is accepted by the enzyme,[2]; activity-pH-relationship studies,≤ 9
same,Vmaxrel.,"[2]; apparent, relative to acetylacetone = 1.00, purified wild-type enzyme",1.00
same,KO2,"[2]; apparent, polarographic, estimated from rate of oxygen depletion, substrate 0.5-1 mM",38 ± 6 µM
same,Vmax wild-type,[3],1.00
same,acetate found per mmol of acetyl-acetone cleaved,[4],one
same,fetotoxicity,[5]; in vivo,fetotoxicity was observed
same,immune system toxicity,[5]; [8],possible immune system toxicity
same,neurotoxicity,[5]; [8],central neurotoxicity
same,Vmax clone,[6],1.00
same,Substrate % (remaining),[7]; remaining substrate calculated,0%
same,Acetate %,[7]; oxygen saturated buffer,50%
same,Methylglyoxal %,[7]; oxygen saturated buffer,50%
CC(=O)CC(=O)c1ccccc1 [benzoylacetone],inhibition of mutagenicity of 2-naphthohydroxamic acid,Salmonella typhimurium,inhibit
same,inhibition of binding to tRNA of benzo[a]pyrene,tRNA,inhibited
B1,apparent Vmax of the purified enzyme,[2]; acetylacetone as substrate,10.5 U/mgEnzyme
same,halftime-stability,"[1]; 0.05 mg/mL protein concentration, 4° C.",3550 min
same,pH of maximum stability,[1]; enzyme incubated at pH 5.0-9.0,7.5-8.0
same,pH of maximum activity,"[1]; oxygen electrode, KH2PO4-buffers pH 5.0-9.0",6.0-7.5

# From US6790644B2, “1,3-dicarbonyl-dioxygenase—a new c-c-bond cleaving enzyme” (Biocatalytics, Inc., priority 2001, dated 2004)
